Assay results reported in patent publication US9326515B2, “Fungicidal 3-[(1,3-thiazol-4-ylmethoxyimino)(phenyl)methyl]-2-substituted-1,2,4-oxadiazol-5(2H)-one derivatives” (BAYER INTELLECTUAL PROPERTY GMBH, priority 2011, dated 2016).
Read-outs that look alike come from different tables or passages of the source.

Key:
Pyrenophora teres = test: Example E: in vivo preventive test on Pyrenophora teres (net blotch on barley); conditions: 500 ppm, spray on barley plants, contaminated after 24 hours, grading 14 days after contamination vs control plants
Protocol: (§1) The active ingredients tested are prepared by homogenization in a mixture of acetone/tween/DMSO, and then diluted with water to obtain the desired active material concentration.
Barley plants (“Plaisant” variety), sown in starter cups on a 50/50 peat soil-pozzolana substrate and grown at 22° C., are treated at the 1-leaf stage (10 cm height) by spraying with the active ingredient prepared as described above. Plants, used as controls, are treated with the mixture of acetone/tween/DMSO/water not containing the active material.
After 24 hours, the plants are contaminated by spraying the leaves with an aqueous suspension of Pyrenophora teres spores (12 000 spores per ml). The spores are collected from a 12-day-old culture. The contaminated barley plants are incubated for 48 hours at 20° C. and at 100% relative humidity, and then for 12 days at 20° C. at 70-80% relative humidity.
Grading (% of efficacy) is carried out 14 days after the contamination, in comparison with the control plants.
(§2) Under these conditions, good (at least 70%) or total protection is observed at a dose of 500 ppm with the following compounds: […]

Septoria tritici = test: Example G: in vivo preventive test on Septoria tritici (leaf spot on wheat); conditions: 500 ppm, spray on wheat plants, contaminated after 24 hours, grading 24 days after contamination vs control plants
Protocol: as §1
(§3) Wheat plants (“Scipion” variety), sown in starter cups on a 50/50 peat soil-pozzolana substrate and grown at 22° C., are treated at the 1-leaf stage (10 cm height) by spraying with the active ingredient prepared as described above. Plants, used as controls, are treated with the mixture of acetone/tween/DMSO/water not containing the active material.
After 24 hours, the plants are contaminated by spraying the leaves with an aqueous suspension of cryopreserved Septoria tritici spores (500 000 spores per ml). The contaminated wheat plants are incubated for 72 hours at 18° C. and at 100% relative humidity, and then for 21 days at 90% relative humidity.
Grading (% of efficacy) is carried out 24 days after the contamination, in comparison with the control plants.
as §2

Phytophthora infestans [1] = assay type: in vivo; conditions: 500 ppm, spray on tomato plants, contaminated after 24 hours, grading 5 days after contamination vs control plants
Phytophthora infestans [2] = assay type: in vivo; conditions: 100 ppm of active ingredient, spray on young tomato plants, inoculated one day after treatment, evaluated 7 days after inoculation
[3] = pH 2.7
Puccinia recondita = test: Example F: in vivo preventive test on Puccinia recondita (brown rust on wheat); conditions: 500 ppm, spray on wheat plants, contaminated after 24 hours, grading 12 days after contamination vs control plants
Protocol: as §1, §3
After 24 hours, the plants are contaminated by spraying the leaves with an aqueous suspension of Puccinia recondita spores (100 000 spores per ml). The spores are collected from an infected plant and are suspended in water containing 2.5 ml/l of Tween 80 at 10%. The contaminated wheat plants are incubated for 24 hours at 20° C. and at 100% relative humidity, and then for 10 days at 20° C. and at 70-80% relative humidity.
(§4) Grading (% of efficacy) is carried out 12 days after the contamination, in comparison with the control plants.
as §2

Botrytis cinerea = test: Example C: in vivo preventive test on Botrytis cinerea (grey mould); conditions: 500 ppm, spray on gherkin plants, contaminated after 24 hours, grading 4 to 5 days after contamination vs control plants
Protocol: (§5) The active ingredients tested are prepared by homogenization in a mixture of acetone/tween/DMSO and then diluted with water to obtain the desired active material concentration.
(§6) Gherkin plants (“Vert petit de Paris” variety), sown in starter cups on a 50/50 peat soil-pozzolana substrate and grown at 24° C., are treated at the Z11 cotyledon stage by spraying with the active ingredient prepared as described above. Plants, used as controls, are treated with the mixture of acetone/tween/DMSO/water not containing the active material.
After 24 hours, the plants are contaminated by spraying the cotyledons with an aqueous suspension of cryopreserved Botrytis cinerea spores (50 000 spores per ml). The spores are suspended in a nutrient solution composed of 10 g/L of PDB, 50 g/L of D-Fructose, 2 g/L of NH4NO3 and 1 g/L of KH2PO4. The contaminated gherkin plants are incubated at 17° C. and at 90% relative humidity.
Grading (% of efficacy) is carried out 4 to 5 days after the contamination, in comparison with the control plants.
as §2

[4] = for chromatographic logP: pH 2.7; for LogP: table 1, compounds of formula (I), HPLC reversed phase, pH 2.7, 0.1% formic acid in water / acetonitrile gradient
Sphaerotheca fuliginea = test: Example D: in vivo preventive test on Sphaerotheca fuliginea (powdery mildew on cucurbits); conditions: 500 ppm, spray on gherkin plants, contaminated after 24 hours, grading 12 days after contamination vs control plants
Protocol: as §5, §6
After 24 hours, the plants are contaminated by spraying the cotyledons with an aqueous suspension of Sphaerotheca fuliginea spores (100 000 spores per ml). The spores are collected from infected plants. The contaminated gherkin plants are incubated at about 20° C. and at 70-80% relative humidity.
as §4, §2

Plasmopara viticola = test: Example I: in vivo preventive test on Plasmopara viticola (grapevines); conditions: 10 ppm of active ingredient, spray on young grapevine plants, inoculated after spray coating dried, evaluated 6 days after inoculation
Protocol: To produce a suitable preparation of active compound, 1 part by weight of active compound is mixed with the stated amounts of solvent and emulsifier, and the concentrate is diluted with water to the desired concentration.
To test for preventive activity, young plants are sprayed with the preparation of active compound at the stated rate of application. After the spray coating has dried on, the plants are inoculated with an aqueous spore suspension of Plasmopara viticola and then remain for 1 day in an incubation cabinet at approximately 20° C. and a relative atmospheric humidity of 100%. The plant is subsequently placed for 4 days in a greenhouse at approximately 21° C. and a relative atmospheric humidity of approximately 90%. The plants are then misted and placed for 1 day in an incubation cabinet.
The test is evaluated 6 days after the inoculation. 0% means an efficacy which corresponds to that of the untreated control, while an efficacy of 100% means that no disease is observed.

Alternaria brassicae = test: Example B: in vivo preventive test on Alternaria brassicae (leaf spot on radish); conditions: 500 ppm, spray on radish plants, contaminated after 24 hours, grading 6 days after contamination vs control plants
Protocol: as §1
Radish plants (“Pernod Clair” variety), sown in starter cups on a 50/50 peat soil-pozzolana substrate and grown at 17° C., are treated at the cotyledon stage by spraying with the active ingredient prepared as described above. Plants, used as controls, are treated with the mixture of acetone/tween/DMSO/water not containing the active material.
After 24 hours, the plants are contaminated by spraying the cotyledons with an aqueous suspension of Alternaria brassicae spores (50 000 spores per ml). The spores are collected from a 15-day-old culture. The contaminated radish plants are incubated at 20° C. and at 100% relative humidity.
Grading (% of efficacy) is carried out 6 days after the contamination, in comparison with the control plants.
as §2

CC(COc1ccccc1)OC(=O)Nc1nc(CON=C(c2ccccc2)c2nc(=O)on2C)cs1 (centres unmarked) [Example 28]
% efficacy (Pyrenophora teres): 85%
% efficacy (Septoria tritici): 75%
% efficacy (Phytophthora infestans [1]): 97%
Eff. % (Phytophthora infestans [2]): 92%
LogP [3]: 3.46

C#CCCCOC(=O)Nc1nc(CON=C(c2ccccc2)c2nc(=O)on2C)cs1 [Example 29]
% efficacy (Phytophthora infestans [1]): 95%
% efficacy (Puccinia recondita): 94%
LogP [3]: 2.77

C#CCCC(C)OC(=O)Nc1nc(CO/N=C(/c2ccccc2)c2nc(=O)on2C)cs1 (racemic) [Example 32]
% efficacy (Phytophthora infestans [1]): 99%
% efficacy (Botrytis cinerea): 79%
LogP [3]: 3.00

COc1cccc(/C(=N/OCc2csc(NC(=O)OC3CCCCC3)n2)c2nc(=O)on2C)c1 [Example 33, Cyclohexyl {4-[({[(Z)-(3-methoxyphenyl)(2-methyl-5-oxo-2,5-dihydro-1,2,4-oxadiazol-3-yl)methylene]amino}oxy)methyl]-1,3-thiazol-2-yl}carbamate]
% efficacy (Phytophthora infestans [1]): 88%
chromatographic logP [4]: 3.57

Cn1oc(=O)nc1C(=NOCc1csc(NC(=O)COC2CCCCC2)n1)c1ccccc1 [Example 23]
% efficacy (Phytophthora infestans [1]): 100%
Eff. % (Phytophthora infestans [2]): 100%
LogP [4]: 3.42

Cn1oc(=O)nc1C(=NOCc1csc(NC(=O)OCCOc2ccccc2)n1)c1ccccc1 [Example 21]
% efficacy (Pyrenophora teres): 80%
% efficacy (Sphaerotheca fuliginea): 75%
% efficacy (Septoria tritici): 75%
% efficacy (Phytophthora infestans [1]): 98%
Eff. % (Phytophthora infestans [2]): 92%
LogP [3]: 3.19

Cn1oc(=O)nc1C(=NOCc1csc(NC(=O)C2Cc3ccccc3O2)n1)c1ccccc1 (centres unmarked) [Example 24]
% efficacy (Phytophthora infestans [1]): 100%
Eff. % (Plasmopara viticola): 93%
Eff. % (Phytophthora infestans [2]): 84%
LogP [3]: 3.06

CC(OCc1ccccc1)C(=O)Nc1nc(CON=C(c2ccccc2)c2nc(=O)on2C)cs1 (centres unmarked) [Example 19]
% efficacy (Phytophthora infestans [1]): 100%
Eff. % (Plasmopara viticola): 91%
LogP [4]: 3.29

COc1cccc(/C(=N/OCc2csc(NC(=O)C3CCc4ccccc4O3)n2)c2nc(=O)on2C)c1 (racemic) [Example 35]
% efficacy (Alternaria brassicae): 100%
% efficacy (Phytophthora infestans [1]): 90%
LogP [3]: 3.44

CCC(C)SC(=O)Nc1nc(CON=C(c2ccccc2)c2nc(=O)on2C)cs1 (centres unmarked) [Example 31]
% efficacy (Phytophthora infestans [1]): 100%
% efficacy (Botrytis cinerea): 82%
LogP [3]: 3.46

Cn1oc(=O)nc1/C(=N\OCc1csc(NC(=S)Cc2ccc(Cl)cc2)n1)c1ccccc1 [Example 100, 2-(4-chlorophenyl)-N-{4-[({[(Z)-(2-methyl-5-oxo-2,5-dihydro-1,2,4-oxadiazol-3-yl)(phenyl)methylene]amino}oxy)methyl]-1,3-thiazol-2-yl}ethanethioamide]
chromatographic logP [4]: 4.04

Cn1oc(=O)nc1/C(=N\OCc1csc(NC(=O)C2COc3ccccc3O2)n1)c1ccccc1 (centres unmarked) [Example 9, N-{4-[({[(Z)-(2-methyl-5-oxo-2,5-dihydro-1,2,4-oxadiazol-3-yl)(phenyl)methylene]amino}oxy)methyl]-1,3-thiazol-2-yl}-2,3-dihydro-1,4-benzodioxine-2-carboxamide]
Eff. % (Plasmopara viticola): 97%
Eff. % (Phytophthora infestans [2]): 98%
chromatographic logP [4]: 3.11

Cn1oc(=O)nc1/C(=N\OCc1csc(NC(=O)C2CCc3ccccc3O2)n1)c1ccccc1 (centres unmarked) [Example 22, N-{4-[({[(Z)-(2-methyl-5-oxo-2,5-dihydro-1,2,4-oxadiazol-3-yl)(phenyl)methylene]amino}oxy)methyl]-1,3-thiazol-2-yl}chromane-2-carboxamide]
Eff. % (Plasmopara viticola): 96%
Eff. % (Phytophthora infestans [2]): 100%
chromatographic logP [4]: 3.35

COc1cccc(/C(=N/OCc2csc(NC(=O)OC(C)(C)C)n2)c2nc(=O)on2C)c1 [Example 34]
% efficacy (Phytophthora infestans [1]): 100%
Eff. % (Plasmopara viticola): 95%
LogP [3]: 3.13

C#CCCCCOC(=O)Nc1nc(CON=C(c2ccccc2)c2nc(=O)on2C)cs1 [Example 30]
% efficacy (Sphaerotheca fuliginea): 78%
% efficacy (Phytophthora infestans [1]): 100%
Eff. % (Plasmopara viticola): 90%
% efficacy (Puccinia recondita): 98%
LogP [3]: 3.02
